How the values were obtained:
[1] = tested on: male Sprague/Dawley (SD) rats; experiment: Hemodynamic assessment (MAP) in rats treated with fluprostenol and/or IFN-γ; assay type: in vivo, rat; settings: conscious rats, 14 days of treatment (FIG. 5)
Description: Hemodynamic assessment Thirteen days after treatment, rats were anesthetized with intraperitoreal injection of ketamine 80 mg/kg (Aveco Co., Inc., Fort Dodge, Iowa) and xylazine 10 mg/kg (Rugby Laboratories, Inc., Rockville Center, N.Y.). A catheter (PE-10 fused with PE 50) filled with heparin-saline solution (50 U/ml) was implanted into the abdominal aorta, via the right femoral artery, for measurement of mean arterial pressure (MAP) and heart rate (HR). The catheter was exteriorized and fixed at the back of the neck.
One day after catheterization, the arterial catheter was connected to a Model CP 10 pressure transducer (Century Technology Company, Inglewood, Calif., USA) that was coupled to a Grass Model 7 polygraph (Grass Instruments, Quincy, Mass., USA). MAP and HR were measured simultaneously in conscious, unrestrained rats.

[2] = tested on: left ventricle of rats with pressure overload; experiment: Cardiac gene expression (real-time RT-PCR) in rats with pressure overload; assay type: in vivo, rat
Description: Experimental protocol in rats with pressure overload The rats with aortic banding randomly received subcutaneous injection of IFN-γ at 0.08 mg/k twice a day for one day before surgery and for 14 days after surgery. Sham animals were not treated. Thirteen days after treatment, a catheter was implanted into the right carotid artery under anesthesia as indicated above. One day after implantation, arterial pressure and HR were measured in conscious rats. The heart and other organs including the liver, kidney, and spleen were removed, weighed, and fixed in 10% buffered formalin for pathological studies. The left ventricle was quickly dissected and frozen with liquid nitrogen in some animals and stored at −80° C. for assessment of gene expression.
RNA preparation Total RNA was isolated using RNeasy Maxi Columns (Qïägen) according to the manufacturer's instructions.
RT-PCR Real-time RT-PCR (TaqMan) technology was used to compare the gene expression between the various treatment groups. An oligonucleotide probe containing a fluorescent reporter dye, […], at the 3′-end was designed to hybridize to the amplicon defined by two PCR primers. A 3′-blocking phosphate prevents extension of the probe. The reporter dye is released from the probe by the 5′ exonuclease activity of Taq polymerase during the extension phase of PCR reaction. […] The threshold cycle number (Ct), defined as the point where the reporter fluorescence reaches a value greater than 10 times the standard deviation of the baseline, is […] to the amount of amplicon produced from the sample. Since the fluorescence is detected during the exponential phase of the amplification, none of the reaction components are limiting. In each experiment, a control is analyzed that lacks the RNA template to monitor for contamination, and another control is included where the RT step is omitted to eliminate amplification of possible contaminating DNA as the source of the signal. Reactions are optimized to give the greatest fluorescence signal and smallest Ct by titration of magnesium and primer concentrations, and the product is run on an agarose gel to verify the presence of a single band at the predicted molecular weight. In addition, the sequence of the amplicon is screened against Genbank to eliminate the possibility of overlap with closely related genes.
For each sample the mRNA for each target gene is determined using a standard curve as described below and then normalized to the amount of glyceraldehyde-3-phosphate-dehydrogenase (GAPDH) in the sample (see below for specifics of this calculation). The relative abundance of each target gene to GAPDH can then be compared among treatment groups.
RT-PCR was performed on 1 ng of total RNA per reaction using the TaqMan Model 7700 Sequence Detector (ABI-Perkin Elmer) (Gibson et al., Genome Res. 6, 995–1001 [1996]). Amplification reaction conditions (for 50 μl) were 1×TaqMan Buffer A, 200 μM dATP, dCTP, dGTP, and 400 μM dUTP, 10% glycerol, 6.5 mM MgCl2, 50 U MuLV reverse transcriptase, 20 U RNase Inhibitor, 1.25 U AmpliTaq Gold, 100 nM forward and reverse primers, and 100 nM fluorogenic probe. RT-PCR reagents and glycerol were purchased from Perkin Elmer and Sigma, respectively. Reactions were performed in MicoAmp Optical Tubes and Caps (ABI-Perkin Elmer). TaqMan primers and probes were designed according to guidelines determined by Perkin Elmer and synthesized at Genentech, Inc., except for those for rodent GAPDH which were a generous gift from Perkin Elmer. Reverse transcription was performed at 48° C. for 30 minutes followed by heat activation of AmpliTaq Gold at 95° C. for 10 minutes. Thermal cycling was at 95° C. for 30 seconds and 60° for 1.5 minutes for 40 cycles.
Quantitation of the TaqMan results was performed as described by Heid et al., Genome Res. 6:986–994 (1996), with modifications. Briefly, standard curves (1:5 serial dilution) for each target gene of interest were run in duplicate. […]

[3] = pressure overload, ratio to glyceraldehyde-3-phosphate dehydrogenase, mean ± SEM, n = 6

Substance: IFN-γ: recombinant mouse IFN-γ (Genentech, Inc., South San Francisco, Calif., or Genzyme, Cambridge, Mass.)
- Effect of IFN-γ on MAP of animals treated with fluprostenol [1]: did not affect the MAP
- Mean arterial pressure (MAP) compared to vehicle [1]: had no effect on MAP
- Effects of aortic constriction on α-smooth muscle actin and collagen I gene expression ([2]; banded rats, Table 3): inhibited
- ANF, atrial natriuretic factor expression [2, 3]: 3.61 ± 1.32
- COLI, collagen I expression [2, 3]: 0.77 ± 0.10
- COLIII, collagen III expression [2, 3]: 0.72 ± 0.09
- FIB, fibronectin expression [2, 3]: 0.97 ± 012
- SKA, α-skeletal actin expression [2, 3]: 2.47 ± 0.51
- SMA, α-smooth muscle actin expression [2, 3]: 0.77 ± 0.06
- βMHC, β-myosin heavy chain expression [2, 3]: 1.71 ± 0.14

Reference: patent US6989364B1, “Methods for treating cardiac hypertrophy by administering IFN-γ” (Genentech, Inc., priority 1998, dated 2006)
